For 46 compounds, EC50 results are on record in US20230021448A1, “COMPOUNDS AND COMPOSITIONS FOR TREATING CONDITIONS ASSOCIATED WITH STING ACTIVITY” (IFM Due, Inc., priority 2019, published 2023).

Structures are written as SMILES.

This assay deals with T1, STING (Homo sapiens, UniProt Q86WV6, G230A/H232R/R293Q/R71H).
T1 construct: host or cells: THP1-Dual KO-IFNAR2 cells
T1 sequence (Q86WV6 whole entry R71H/G230A/H232R/R293Q): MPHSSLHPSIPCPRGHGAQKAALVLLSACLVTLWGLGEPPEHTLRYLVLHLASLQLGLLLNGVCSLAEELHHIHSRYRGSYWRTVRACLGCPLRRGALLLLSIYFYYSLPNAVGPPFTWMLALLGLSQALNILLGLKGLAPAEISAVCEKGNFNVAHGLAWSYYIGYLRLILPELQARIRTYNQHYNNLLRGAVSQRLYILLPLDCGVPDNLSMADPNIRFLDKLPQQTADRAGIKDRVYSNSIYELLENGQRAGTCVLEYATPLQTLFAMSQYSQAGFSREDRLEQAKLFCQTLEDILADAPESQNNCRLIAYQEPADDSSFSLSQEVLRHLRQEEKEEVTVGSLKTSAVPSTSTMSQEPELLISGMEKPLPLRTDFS
Description: STING reporter assay: luciferase reporter activity in THP1-Dual KO-IFNAR2 cells stimulated with 2'3'cGAMP. It counts as cell-based. Particulars: 2′3′cGAMP 15 μM final, 24h, read-out: hSTING: EC50. On the procedure:
STING pathway activation by the compounds described herein was measured using THIP1-Dua1™ cells (KO-IFNAR2).
TTIP1-Dual™ KO-IFNAR2 Cells (obtained from invivogen) were maintained in RPMI, 10% FCS, 5 ml P/S, 2 mM L-glut, 10 mM Hepes, and 1 mM sodium pyruvate. Compounds were spotted in empty 384 well tissue culture plates (Greiner 781182) by Echo for a final concentration of 0.0017-100 μM. Cells were plated into the TC plates at 40 μL per well, 2×10E6 cells/mL. For activation with STING ligand, 2′3′cGAMP (MW 718.38, obtained from Invivogen), was prepared in Optimem media.
The following solutions were prepared for each 1×384 plate: • Solution A: 2 mL Optimem with one of the following stimuli: • […] • Solution B: 2 mL Optimem with 60 μL Lipofectamine 2000->Incubate 5 min at RT
2 mL of solution A and 2 ml Solution B was mixed and incubated for 20 min at room temperature (RT). 20 uL of transfection solution (A+B) was added on top of the plated cells, with a final 2′3′cGAMP concentration of 15 μM. The plates were then centrifuged immediately at 340 g for 1 minute, after which they were incubated at 37° C., 5% C02, >98% humidity for 24h. Luciferase reporter activity was then measured. EC50 values were calculated by using standard methods known in the art.
Luciferase reporter assay: 10 μL of supernatant from the assay was transferred to white 384-plate with flat bottom and squared wells. One pouch of QUANTI-Luc™ Plus was dissolved in 25 mL of water. 100 μL of QLC Stabilizer per 25 mL of QUANTI-Luc™ Plus solution was added. 50 μL of QUANTI-Luc™ Plus/QLC solution per well was then added. Luminescence was measured on a Platereader (e.g., Spectramax I3X (Molecular Devices GF3637001)).
Luciferase reporter activity was then measured. EC50 values were calculated by using standard methods known in the art.
On to `CN(Cc1ccc(C(F)(F)F)c(Cl)c1)C(=O)C(=O)Nc1c[nH]c2cc(F)c(F)cc12` [Compound 141], for which the EC50 lay within 5000 to 100000 nM. The result for `O=C(Nc1c[nH]c2cc(F)c(F)cc12)C(=O)N[C@H]1CC[C@H](Oc2ccc(C(F)(F)F)cn2)CC1` [Compound 230, N-(5,6-difluoro-1H-indol-3-yl)-N′-[trans-4-[[5-(trifluoromethyl)pyridin-2-yl]oxy]cyclohexyl]ethanediamide] reads 40 to 200 nM; that for `CC(CN(C)c1ccccn1)NC(=O)C(=O)Nc1c[nH]c2cc(F)c(F)cc12` (stereo not shown) [Compound 284], 1000 to 5000 nM. The result for `CN(CCNC(=O)C(=O)Nc1c[nH]c2cc(F)c(F)cc12)c1ccccn1` [Compound 322] reads 200 to 1000 nM; that for `O=C(Nc1c[nH]c2cc(F)c(F)cc12)C(=O)NC1CCC2(CCCCC2)CC1` [Compound 109], 200 to 1000 nM; that for `O=C(NCCC1CC2CCC1C2)C(=O)Nc1c[nH]c2cc(F)c(F)cc12` (stereo not shown) [Compound 190], 200 to 1000 nM. As for `O=C(Nc1c[nH]c2cc(F)c(F)cc12)C(=O)NC1CC2CCC(C1)C2Oc1ccc(C(F)(F)F)cc1` (stereo not shown) [Compound 205], the figure is 1000 to 5000 nM; as for `O=C(Nc1ccc(C2CCCCC2)nc1)C(=O)Nc1c[nH]c2cc(F)c(F)cc12` [Compound 104], 200 to 1000 nM. In the case of `O=C(Nc1c[nH]c2cc(F)c(F)cc12)C(=O)NC1CCC(Oc2ccc(C(F)(F)F)cn2)CC1` (stereo not shown) [Compound 255], the EC50 lay within 5000 to 100000 nM.

As for `O=C(Nc1c[nH]c2cc(F)c(F)cc12)C(=O)NC1CCCC2(CCCCC2)C1` (stereo not shown) [Compound 281], the EC50 was 200 to 1000 nM. As for `O=C(NCCC1CCC(F)(F)CC1)C(=O)Nc1c[nH]c2cc(F)c(F)cc12` [Compound 110], the figure is 200 to 1000 nM. The result for `O=C(Nc1c[nH]c2cc(F)c(F)cc12)C(=O)N[C@H]1C[C@H](Nc2ccc(C(F)(F)F)cn2)C1` [Compound 197] reads 200 to 1000 nM; that for `Cc1ccc(CNC(=O)C(=O)Nc2c[nH]c3ccc(-c4cccc(CO)c4)cc23)cc1C(F)(F)F` [Compound 134], 200 to 1000 nM; that for `O=C(NCC1CC12CCCCC2)C(=O)Nc1c[nH]c2cc(F)c(F)cc12` (stereo not shown) [Compound 189], 200 to 1000 nM.

As to `O=C(Nc1c[nH]c2cc(F)c(F)cc12)C(=O)NC1CCC2(CCCC2)C1` (single isomer, unassigned) [Compound 246], the EC50 lay in the range of 200 to 1000 nM. As for `O=C(Nc1c[nH]c2cc(F)c(F)cc12)C(=O)N[C@H]1CC[C@H](NCC(F)(F)F)CC1` [Compound 211], the figure is 1000 to 5000 nM; as for `O=C(NCc1cc(C(F)(F)F)c(Cl)cn1)C(=O)Nc1c[nH]c2cc(F)c(F)cc12` [Compound 335], 40 to 200 nM. On to `O=C(Nc1c[nH]c2cc(F)c(Cl)cc12)C(=O)N[C@H]1CC[C@H](Oc2ccc(C(F)(F)F)cn2)CC1` [Compound 209, N-(5-chloro-6-fluoro-1H-indol-3-yl)-N′-(trans-4-((5-(trifluoromethyl)pyridin-2-yl)oxy)cyclohexyl)oxalamide], for which the concentration for a half-maximal effect (EC50) is 200 to 1000 nM. With `O=C(Nc1c[nH]c2cc(F)c(F)cc12)C(=O)N[C@@H]1CCC[C@H](Oc2ccc(C(F)(F)F)cc2)C1` (single isomer, unassigned) [Compound 220], the concentration giving a half-maximal response (EC50) is 200 to 1000 nM. The result for `O=C(NCCc1ccccc1C(F)(F)F)C(=O)Nc1c[nH]c2cc(F)c(F)cc12` [Compound 138, N1-(5,6-difluoro-1H-indol-3-yl)-N2-(2-(trifluoromethyl)phenethyl) oxalamide] reads 200 to 1000 nM; that for `CCC1CCC(NC(=O)C(=O)Nc2c[nH]c3cc(F)c(F)cc23)CC1` (stereo not shown) [Compound 113], 200 to 1000 nM. `O=C(Nc1c[nH]c2cc(F)c(F)cc12)C(=O)NC1CCOC2(CCCC2)C1` (single isomer, unassigned) [Compound 243]: the EC50 lay within 1000 to 5000 nM. As for `O=C(NCc1cccc(C(F)(F)F)c1F)C(=O)Nc1c[nH]c2cc(F)c(F)cc12` [Compound 163, N1-(5,6-difluoro-1H-indol-3-yl)-N2-(2-fluoro-3-(trifluoromethyl)benzyl)oxalamide], the figure is 200 to 1000 nM; as for `O=C(Nc1c[nH]c2ccc(Cl)cc12)C(=O)N[C@H]1CC[C@H](Oc2ccc(C(F)(F)F)cc2)CC1` [Compound 213, N-(5-chloro-1H-indol-3-yl)-N′-(trans-4-(4-(trifluoromethyl)phenoxy)cyclohexyl)oxalamide], 40 to 200 nM; as for `O=C(Nc1cccc(C(F)(F)F)c1)C(=O)Nc1c[nH]c2cc(F)c(F)cc12` [Compound 102], 200 to 1000 nM.

`Cc1ccc(OCCNC(=O)C(=O)Nc2c[nH]c3cc(F)c(F)cc23)cc1C` [Compound 147, N1-(5,6-difluoro-1H-indol-3-yl)-N2-(2-(3,4-dimethylphenoxy)ethyl)oxalamide]: the 50% effective concentration (EC50) is 200 to 1000 nM. As to `Cc1ccc(O[C@H]2C[C@H](NC(=O)C(=O)Nc3c[nH]c4cc(F)c(F)cc34)C2)cn1` [Compound 196], the EC50 was 200 to 1000 nM. The result for `O=C(NCCc1cccc(C(F)(F)F)c1)C(=O)Nc1c[nH]c2cc(F)c(F)cc12` [Compound 351] reads 200 to 1000 nM; that for `O=C(NCc1ccc(C(F)(F)F)c(Cl)c1)C(=O)Nc1c[nH]c2ccc(CCO)cc12` [Compound 339, N-(3-chloro-4-(trifluoromethyl)benzyl)-N′-(5-(2-hydroxyethyl)-1H-indol-3-yl)oxalamide], 200 to 1000 nM; that for `O=C(NCc1ccc(C(F)(F)F)c(Cl)c1)C(=O)Nc1c[nH]c2cc(F)c(F)cc12` [Compound 123], 40 to 200 nM. The result for `CN(C)CC(NC(=O)C(=O)Nc1c[nH]c2cc(F)c(F)cc12)c1ccccc1` (stereo not shown) [Compound 308, N-(5,6-difluoro-1H-indol-3-yl)-N′-[2-(dimethylamino)-1-phenylethyl] ethanediamide] reads 5000 to 100000 nM; that for `O=C(Nc1c[nH]c2cc(F)c(F)cc12)C(=O)N[C@H]1C[C@@H](Oc2ccc(C(F)(F)F)nc2)C1` [Compound 198], 200 to 1000 nM. For `O=C(Nc1ccc(C2CCC(F)(F)CC2)nc1)C(=O)Nc1c[nH]c2cc(F)c(F)cc12` [Compound 175], the EC50 lay within 200 to 1000 nM. As for `O=C(Nc1c[nH]c2cc(F)c(F)cc12)C(=O)N[C@H]1C[C@H](Oc2ccc(C(F)(F)F)cn2)C1` [Compound 210], the figure is 200 to 1000 nM; as for `N#Cc1ccc(OC2CCC(NC(=O)C(=O)Nc3c[nH]c4cc(F)c(F)cc34)CC2)cc1` (stereo not shown) [Compound 270, N′-[4-(4-cyanophenoxy)cyclohexyl]-N-(5,6-difluoro-1H-indol-3-yl)ethanediamide], 200 to 1000 nM.

On to `O=C(Nc1c[nH]c2cc(F)c(F)cc12)C(=O)N[C@H]1CC[C@@H](Oc2ccc(C(F)(F)F)nc2)CC1` [Compound 222], for which the EC50 fell in the range of 200 to 1000 nM. Turning to `CC(NC(=O)C(=O)Nc1c[nH]c2cc(F)c(F)cc12)c1ccc(C(F)(F)F)cc1` (single isomer, unassigned) [Compound 330], the EC50 fell in the range of 40 to 200 nM. As for `O=C(Nc1c[nH]c2cc(F)c(F)cc12)C(=O)NC1CCC(OCC(F)F)CC1` (stereo not shown) [Compound 178], the figure is 200 to 1000 nM; as for `O=C(NCCc1ccc(C(F)(F)F)c(Cl)c1)C(=O)Nc1c[nH]c2cc(F)c(F)cc12` [Compound 143], 200 to 1000 nM; as for `O=C(NCCCOc1ccc(C(F)(F)F)nc1)C(=O)Nc1c[nH]c2cc(F)c(F)cc12` [Compound 200], 200 to 1000 nM.

On to `C[C@H](NC(=O)C(=O)Nc1c[nH]c2cc(F)c(F)cc12)c1ccc(C(F)(F)F)cc1` (stereo in doubt) [Compound 329], for which the EC50 was 40 to 200 nM.

For the compound `CC(C)(C)OC(=O)N1CCC2(CCC(NC(=O)C(=O)Nc3c[nH]c4cc(F)c(F)cc34)CC2)CC1` [Compound 297, tert-butyl 9-{[(5,6-difluoro-1H-indol-3-yl)carbamoyl] formamido}-3-azaspiro[5.5]undecane-3-carboxylate], the EC50 was in the range of 200 to 1000 nM. Take `O=C(NCC(=O)c1cccc(C(F)(F)F)c1)C(=O)Nc1c[nH]c2cc(F)c(F)cc12` [Compound 275, N-(5,6-difluoro-1H-indol-3-yl)-N′-{2-oxo-2-[3-(trifluoromethyl)phenyl]ethyl} ethanediamide]: the EC50 fell in the range of 200 to 1000 nM. The result for `CC(NC(=O)C(=O)Nc1c[nH]c2cc(F)c(F)cc12)c1ccc(C(F)(F)F)cc1` (stereo not shown) [Compound 156, N1-(5,6-difluoro-1H-indol-3-yl)-N2-(1-(4-(trifluoromethyl)phenyl)ethyl) oxalamide] reads 200 to 1000 nM; that for `O=C(Nc1c[nH]c2cc(F)c(F)cc12)C(=O)N[C@H]1CCCC(Oc2ccc(C(F)(F)F)cc2)C1` (stereo partly shown) [Compound 233], 200 to 1000 nM.

Consider `O=C(NCC12CC3CC(CC(C3)C1)C2)C(=O)Nc1c[nH]c2cc(F)c(F)cc12` [Compound 112], for which the EC50 was in the range of 1000 to 5000 nM.

In general, EC50 refers to the midpoint of the concentration-response curve.
